Where a name gives a salt, the structure may show the parent alone.
Tested on: gastric acid output
Assay: Cysteamine induced gastric acid output
Assay type: in vivo, rat
Conditions: for INITIAL OUTPUT (gastric acid): at opening of gastric fistula, control 187 ± 20; for Gastric acid output, 1 hr: control 68 ± 17; for Gastric acid output, 6 hr: control 91 ± 12; for Gastric acid output, 7 hr: control 99 ± 10; for Gastric acid output, 5 hr: control 104 ± 18; for Gastric acid output, 4 hr: control 110 ± 25; for Gastric acid output, 3 hr: control 141 ± 32; for Gastric acid output, 2 hr: control 195 ± 48; for TOTAL OUTPUT (gastric acid): control 1043 ± 102
Description: (A) In addition, rats of all groups were given cysteamine HCL, 15 mg. 100
g p.o. × 1, 30 min. after (the last dose of) MDO--NPA.
(B) At the opening of gastric fistula

[1] = group 3: 0.1 mg/100 g × 1 day, 1 week
[2] = group 3: 0.1 mg/100 g × 1 day, 1 week, P < 0.01
[3] = group 3: 0.1 mg/100 g × 1 day, 1 week, P < 0.001
[4] = group 3: 0.1 mg/100 g × 1 day, 1 week, P < 0.09

For `CCCN1CCc2cccc3c2[C@H]1Cc1ccc2c(c1-3)OCO2` [MDO-NPA, (-) 10, 11-methylenedioxy-N-n-propylnoraporphine-HCl], the “INITIAL OUTPUT (gastric acid)” value (group 2: × 1 day, P < 0.001) was 47 ± 13 μ Eq, the “Gastric acid output, 1 hr” value (group 2: × 1 day) was 28 ± 18 μ Eq and the “Gastric acid output, 6 hr” value (group 2: × 1 day, P < 0.01) was 20 ± 11 μ Eq. For the same compound, the “Gastric acid output, 7 hr” value (group 2: × 1 day, P < 0.001) was 18 ± 6 μ Eq, the “Gastric acid output, 5 hr” value (group 2: × 1 day, P < 0.01) was 10 ± 3 μ Eq and the “Gastric acid output, 4 hr” value (group 2: × 1 day, P < 0.09) was 17 ± 8 μ Eq. For the same compound, the “Gastric acid output, 3 hr” value (group 2: × 1 day) was 81 ± 40 μ Eq, the “Gastric acid output, 2 hr” value (group 2: × 1 day) was 66 ± 29 μ Eq and the “TOTAL OUTPUT (gastric acid)” value (group 2: × 1 day, P < 0.001) was 288 ± 67 μ Eq. The “INITIAL OUTPUT (gastric acid)” value [1] was 120 ± 36 μ Eq, the “Gastric acid output, 1 hr” value [1] was 29 + 10 μ Eq and the “Gastric acid output, 6 hr” value [2] was 18 ± 14 μ Eq. For the same compound, the “Gastric acid output, 7 hr” value [3] was 9 ± 4 μ Eq, the “Gastric acid output, 5 hr” value [2] was 17 ± 7 μ Eq and the “Gastric acid output, 4 hr” value [2] was 14 ± 6 μ Eq. The “Gastric acid output, 3 hr” value [4] was 36 ± 9 μ Eq, the “Gastric acid output, 2 hr” value [4] was 66 + 21 μ Eq and the “TOTAL OUTPUT (gastric acid)” value [3] was 306 ± 62 μ Eq.
